Counter-ions that a name gives are not always drawn. Like-named read-outs stand apart in the source and are kept apart here.
Columns and labels:
[1] = biological target: hPAD4 (Homo sapiens, UniProt Q9UM07); experiment: hPAD4 RFMS (RapidFire mass spectrometry) PAD4 inhibition assay; type: biochemical; conditions: hPAD4 enzyme, RFMS readout;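 as to hPAD4 RFMS pIC50: grade E means pIC50 at most 4 and F means pIC50 4.0 to 5.0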
Experimental: (§1) Compounds of the present invention were assayed as inhibitors of PAD4 using the assay protocol described below.
(§2) Compound stock solutions were stored at RT. […] Final assay conditions were as follows:
(§3) Total incubation time: 65 mins at 37° C.
(§4) Stop solution: 40 μl 5% TCA in ACN
(§5) The compound numbers correspond to the compound numbers in Table 1. […] The term pIC50=−log(IC50). […] “NA” stands for “not assayed.”

[2] = biological target: mPAD4 (Mus musculus, UniProt Q9Z183); experiment: mPAD4 RFMS PAD4 inhibition assay; type: biochemical; conditions: mPAD4, RFMS readout;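 as to mPAD4 RFMS pIC50: grade E means pIC50 at most 4 and F means pIC50 4.0 to 5.0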
mPAD4, sequence (Q9Z183 whole entry): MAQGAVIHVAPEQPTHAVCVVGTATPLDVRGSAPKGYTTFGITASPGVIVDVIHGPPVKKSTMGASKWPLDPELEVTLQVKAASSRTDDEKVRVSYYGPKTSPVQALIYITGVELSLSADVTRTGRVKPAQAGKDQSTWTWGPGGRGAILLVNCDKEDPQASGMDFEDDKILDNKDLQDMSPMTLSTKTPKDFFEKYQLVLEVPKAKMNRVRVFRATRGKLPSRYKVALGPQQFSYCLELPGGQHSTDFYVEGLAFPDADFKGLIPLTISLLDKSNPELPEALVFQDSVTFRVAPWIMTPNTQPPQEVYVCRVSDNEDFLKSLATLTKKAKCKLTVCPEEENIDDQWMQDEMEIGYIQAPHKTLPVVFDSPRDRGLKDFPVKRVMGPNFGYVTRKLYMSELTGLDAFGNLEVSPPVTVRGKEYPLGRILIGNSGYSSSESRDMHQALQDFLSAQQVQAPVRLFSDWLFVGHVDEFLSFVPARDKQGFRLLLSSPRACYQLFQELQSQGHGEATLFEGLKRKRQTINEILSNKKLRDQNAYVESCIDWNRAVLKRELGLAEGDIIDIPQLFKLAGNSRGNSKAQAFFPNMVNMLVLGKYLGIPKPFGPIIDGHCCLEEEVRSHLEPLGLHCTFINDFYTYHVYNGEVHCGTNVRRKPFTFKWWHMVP
Experimental: as §1, §2, §3, §4, §5

[3] = pIC50=−log(IC50), read-out: hPAD4 RFMS pIC50 (converted)
[4] = pIC50=−log(IC50), read-out: mPAD4 RFMS pIC50 (converted)

hPAD4, sequence (Q9UM07 whole entry): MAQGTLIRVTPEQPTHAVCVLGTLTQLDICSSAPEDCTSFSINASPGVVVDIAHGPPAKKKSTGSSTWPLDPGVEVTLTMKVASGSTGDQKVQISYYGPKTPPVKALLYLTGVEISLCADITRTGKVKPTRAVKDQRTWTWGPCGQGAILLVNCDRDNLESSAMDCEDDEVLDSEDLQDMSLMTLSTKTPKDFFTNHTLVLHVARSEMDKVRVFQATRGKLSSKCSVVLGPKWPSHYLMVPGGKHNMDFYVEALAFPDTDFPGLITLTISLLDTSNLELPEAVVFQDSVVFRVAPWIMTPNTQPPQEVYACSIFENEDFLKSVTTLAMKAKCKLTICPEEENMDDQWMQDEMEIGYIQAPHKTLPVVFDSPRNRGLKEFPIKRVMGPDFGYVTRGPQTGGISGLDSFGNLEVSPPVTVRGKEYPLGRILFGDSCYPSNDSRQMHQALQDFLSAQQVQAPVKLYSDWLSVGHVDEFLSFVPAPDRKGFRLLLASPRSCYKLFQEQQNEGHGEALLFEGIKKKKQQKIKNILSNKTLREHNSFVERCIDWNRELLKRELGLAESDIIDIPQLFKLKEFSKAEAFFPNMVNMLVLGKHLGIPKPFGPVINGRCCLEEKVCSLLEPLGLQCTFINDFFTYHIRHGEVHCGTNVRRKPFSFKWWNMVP

| SMILES | IC50 [1, 3] | IC50 ([1]; read-out: hPAD4 RFMS IC50) | IC50 [2, 4] | IC50 ([2]; read-out: mPAD4 RFMS IC50) | hPAD4 RFMS pIC50 ([1]; pIC50=−log(IC50)) | mPAD4 RFMS pIC50 ([2]; pIC50=−log(IC50)) |
| --- | --- | --- | --- | --- | --- | --- |
| COc1cc(C(=O)N2CCC3(CNCCC3(F)F)C2)cc2nc(-c3cc4cccnc4n3CC3CC3)n(C)c12 (racemic) [Compound I-97] | 10 to 100 µM | > 10 µM | 10 to 100 µM | > 10 µM |  |  |
| COc1cc(C(=O)N2CC3CC(N)C2C3)cc2nc(-c3cc4cccnc4n3CC3CC3)n(C)c12 (racemic) [Compound I-99] | > 100 µM | > 10 µM | > 100 µM | > 10 µM |  |  |
| CCn1c(-c2nc3cc(C(=O)N4CC5CCC4C5N)cc(OC)c3n2C)cc2ccc(OC)nc21 (racemic) [Compound I-136] | < 1 µM | < 1 µM | < 1 µM | < 1 µM |  |  |
| CCn1c(-c2nc3cc(C(=O)N4C[C@H]5CC[C@@H]4[C@@H]5N)cc(OC)c3n2C)cc2cccnc21 (racemic) [Compound I-143] | < 1 µM | < 1 µM | < 1 µM | < 1 µM |  |  |
| COc1cc(C(=O)N2C[C@H](N)CC[C@H]2CO)cc2nc(-c3cc4cccnc4n3CC3CC3)n(C)c12 (racemic) [Compound I-220, Rac-[(2R,5S)-5-amino-1-{2-[1-(cyclopropylmethyl)-1H-pyrrolo[2,3-b]pyridin-2-yl]-7-methoxy-1-methyl-1H-1,3-benzodiazole-5-carbonyl}piperidin-2-yl]methanol] |  | > 10 µM |  | > 10 µM | E/F | E/F |
| COc1cc(C(=O)N2C[C@H](N)CC[C@@H]2CO)cc2nc(-c3cc4cccnc4n3CC3CC3)n(C)c12 (racemic) [Compound I-221, rac-[(2R,5R)-5-amino-1-{2-[1-(cyclopropylmethyl)-1H-pyrrolo[2,3-b]pyridin-2-yl]-7-methoxy-1-methyl-1H-1,3-benzodiazole-5-carbonyl}piperidin-2-yl]methanol] | 10 to 100 µM | > 10 µM | 1 to 10 µM | 1 to 5 µM |  |  |
| Cn1c(-c2cc3cccnc3n2CC2CC2)nc2cc(C(=O)N3CC[C@H]4CCN[C@H]4C3)cc(OC(F)F)c21 (single isomer, unassigned) [Compound I-24, hydrochloride] | 10 to 100 µM | > 10 µM | 10 to 100 µM | > 10 µM |  |  |
| Cn1c(-c2cc3cccnc3n2CC2CC2)nc2cc(C(=O)N3CC[C@H]4CCN[C@H]4C3)cc(OC(F)F)c21 (single isomer, unassigned) [Compound I-25, hydrochloride] | 1 to 10 µM | 1 to 5 µM | 1 to 10 µM | 1 to 5 µM |  |  |
| CO[C@@H]1CCN(C(=O)c2ccc3c(c2)nc(-c2cc4cccnc4n2CC2CC2)n3C)C[C@@H]1N (single isomer, unassigned) [Compound I-64] | 1 to 10 µM | 1 to 5 µM | 1 to 10 µM | 5 to 10 µM |  |  |
| CO[C@H]1CCN(C(=O)c2ccc3c(c2)nc(-c2cc4cccnc4n2CC2CC2)n3C)C[C@H]1N (single isomer, unassigned) [Compound I-65] | 10 to 100 µM | > 10 µM | 10 to 100 µM | > 10 µM |  |  |
| COc1cc(C(=O)N2C[C@H](N)CC[C@H]2CO)cc2nc(-c3cc4cccnc4n3CC3CC3)n(C)c12 (single isomer, unassigned) [Compound I-226] |  | > 10 µM |  | > 10 µM | E/F | E/F |
| COc1cc(C(=O)N2C[C@@H](N)CC[C@@H]2CO)cc2nc(-c3cc4cccnc4n3CC3CC3)n(C)c12 (single isomer, unassigned) [Compound I-227] | 10 to 100 µM | > 10 µM |  | > 10 µM |  | E/F |
| COc1cc(C(=O)N2C[C@H](N)CC[C@@H]2CO)cc2nc(-c3cc4cccnc4n3CC3CC3)n(C)c12 (single isomer, unassigned) [Compound I-228] | 1 to 10 µM | 5 to 10 µM | 1 to 10 µM | 1 to 5 µM |  |  |
| COc1cc(C(=O)N2C[C@@H](N)CC[C@H]2CO)cc2nc(-c3cc4cccnc4n3CC3CC3)n(C)c12 (single isomer, unassigned) [Compound I-229] | 10 to 100 µM | > 10 µM | 1 to 10 µM | 5 to 10 µM |  |  |
| Cn1c(-c2cc3cncnc3n2CC2CC2)nc2cc(C(=O)N3CCC4CCNC4C3)ccc21 (stereo not shown) [Compound I-9, 2-[7-(Cyclopropylmethyl)-7H-pyrrolo[2,3-d]pyrimidin-6-yl]-1-methyl-5-{octahydro-1H-pyrrolo[2,3-c]pyridine-6-carbonyl}-1H-1,3-benzodiazole] | 1 to 10 µM | 5 to 10 µM | 10 to 100 µM | > 10 µM |  |  |
| Cn1c(-c2cc3cccnc3n2CC2CC2)nc2cc(C(=O)N3CC[C@H]4CCN[C@H]4C3)ccc21 [Compound I-10] | 1 to 10 µM | 1 to 5 µM | 1 to 10 µM | 5 to 10 µM |  |  |
| COc1cc(C(=O)N2CC[C@@H]3CCN[C@@H]3C2)cc2nc(-c3cc4cccnc4n3CC3CC3)n(C)c12 [Compound I-11] | < 1 µM | < 1 µM | < 1 µM | < 1 µM |  |  |
| COc1cc(C(=O)N2CC[C@H]3CCN[C@H]3C2)cc2nc(-c3cc4cncnc4n3CC3CC3)n(C)c12 [Compound I-12, 5-[(3aR,7aR)-octahydro-1H-pyrrolo[2,3-c]pyridine-6-carbonyl]-2-[7-(cyclopropylmethyl)-7H-pyrrolo[2,3-d]pyrimidin-6-yl]-7-methoxy-1-methyl-1H-1,3-benzodiazole] | 1 to 10 µM | 1 to 5 µM | 10 to 100 µM | > 10 µM |  |  |
| COc1cc(C(=O)N2CC[C@H]3CCN[C@H]3C2)cc2nc(-c3cc4cccnc4n3CC3CC3)n(C)c12 [Compound I-17] | 10 to 100 µM | > 10 µM | 10 to 100 µM | > 10 µM |  |  |
| Cn1c(-c2cc3cccnc3n2CC2CC2)nc2cc(C(=O)N3CC[C@@H]4CCN[C@@H]4C3)ccc21 [Compound I-18] | 10 to 100 µM | > 10 µM | 10 to 100 µM | > 10 µM |  |  |
| CCn1c(-c2cc3cccnc3n2CC2CC2)nc2cc(C(=O)N3CC[C@H]4CCN[C@H]4C3)cc(OC)c21 [Compound I-22] | 10 to 100 µM | > 10 µM | 10 to 100 µM | > 10 µM |  |  |
| CCn1c(-c2cc3cccnc3n2CC2CC2)nc2cc(C(=O)N3CC[C@@H]4CCN[C@@H]4C3)cc(OC)c21 [Compound I-23] | < 1 µM | < 1 µM | 1 to 10 µM | 1 to 5 µM |  |  |
| COc1cc(C(=O)N2CC3(CCCNC3)C2)cc2nc(-c3cc4cccnc4n3CC3CC3)n(C)c12 [Compound I-27] | 1 to 10 µM | 1 to 5 µM | 1 to 10 µM | 1 to 5 µM |  |  |
| COc1cc(C(=O)N2CC[C@H]3OCCN[C@H]3C2)cc2nc(-c3cc4cccnc4n3CC3CC3)n(C)c12 [Compound I-28] | < 1 µM | < 1 µM | < 1 µM | < 1 µM |  |  |
| COc1cc(C(=O)N2CC[C@@H]3OCCN[C@@H]3C2)cc2nc(-c3cc4cccnc4n3CC3CC3)n(C)c12 [Compound I-29] | 10 to 100 µM | 5 to 10 µM | 1 to 10 µM | 5 to 10 µM |  |  |
| COc1cc(C(=O)N2CC3CCC2[C@@H]3N)cc2nc(-c3cc4cccnc4n3CC3CC3)n(C)c12 (stereo partly shown) [Compound I-30] | 10 to 100 µM | > 10 µM | 10 to 100 µM | > 10 µM |  |  |
| COc1cc(C(=O)N2CC3CCC2[C@H]3N)cc2nc(-c3cc4cccnc4n3CC3CC3)n(C)c12 (stereo partly shown) [Compound I-31] | < 1 µM | < 1 µM | < 1 µM | < 1 µM |  |  |
| COc1cc(C(=O)N2CC3(CNCCO3)C2)cc2nc(-c3cc4cccnc4n3CC3CC3)n(C)c12 [Compound I-32] | > 100 µM | > 10 µM | 10 to 100 µM | > 10 µM |  |  |
